In publication PMC11406361, “Several orphan solute carriers functionally identified as organic cation transporters: Substrates specificity compared with known cation transporters” (The Journal of Biological Chemistry, 2024):
One block for each compound: values may come before it.

Key:
SLC35F4 = target: T1, SLC35F4 (Homo sapiens, UniProt A4IF30); test: Uptake ratio screen, SLC35F4-overexpressing HEK293 over empty vector cells; assay type: cell-based; parameters: by amplifying the entire gene-of-interest within the HEK293 genome via a long-range PCR; settings: 2.5 μM, 2 min
T1 sequence (A4IF30 1-521): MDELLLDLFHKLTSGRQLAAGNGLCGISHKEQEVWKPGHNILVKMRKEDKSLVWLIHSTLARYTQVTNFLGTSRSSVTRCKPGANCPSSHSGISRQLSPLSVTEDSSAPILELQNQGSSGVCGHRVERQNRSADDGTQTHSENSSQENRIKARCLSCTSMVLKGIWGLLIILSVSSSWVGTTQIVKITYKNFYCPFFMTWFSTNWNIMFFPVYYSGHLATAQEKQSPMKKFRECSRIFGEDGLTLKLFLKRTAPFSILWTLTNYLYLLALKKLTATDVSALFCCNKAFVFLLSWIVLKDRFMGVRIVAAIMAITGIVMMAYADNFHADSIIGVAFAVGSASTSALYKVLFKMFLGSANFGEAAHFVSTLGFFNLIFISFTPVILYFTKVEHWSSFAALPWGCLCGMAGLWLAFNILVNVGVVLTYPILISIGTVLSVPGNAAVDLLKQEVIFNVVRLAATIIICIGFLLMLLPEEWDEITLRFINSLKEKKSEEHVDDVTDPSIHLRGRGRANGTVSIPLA
Experimental: (§1) Typically discussed substrates of the proton organic-cation antiporter ([14]) are highlighted in dark green in Figure 1.
(§2) In preparation for transport experiments, 24-well plates were pre-coated with poly-D-lysine (Sigma-Aldrich) and 300,000 cells were plated per well and incubated for 48 h. Firstly, the 24-well plate was placed on a heating plate at 37 °C, and the cells were washed with 37 °C HBSS^+ buffer (Hank’s balanced salt solution supplemented with 10 mM Hepes and adjusted to pH 7.4; Thermo Fisher Scientific). The substance-of-interest, which was diluted in 37 °C HBSS^+ to a desired concentration, was added to the cells for exactly 2 min. […] The uptake was stopped with ice-cold HBSS^+, and the 24-well plate was removed from the heating plate. The cells were washed twice with the cold HBSS^+ before they were lysed for 15 min with 80% (v/v) acetonitrile containing the respective internal standard for mass spectrometry. For variations in seeded cell numbers between the cell lines, several wells were lysed in RIPA buffer and used for total protein quantification using a bicinchoninic assay ([74]) and bovine serum albumin as calibration.
(§3) The intracellular drug concentrations after transport experiments were analyzed by high-performance liquid chromatography coupled to tandem mass spectrometry analysis. The HPLC consisted of a Shimadzu Nexera HPLC System with a SIL-30AC autosampler, a LC-30AD pump, a CTO-20AC column oven, and a CBM-20A controller (Shimadzu). The reverse-phase chromatography of compounds was accomplished with a Brownlee SPP RP-Amide column with 4.6 × 100 mm inner dimensions, a particle size of 2.7 μm, and a preceding Phenomenex C-18 guard column. The mobile phase was composed of an organic additive with acetonitrile:methanol 6:1 (v/v) in total concentrations between 3% and 50% (v/v) and 0.1% (v/v) formic acid in the aqueous component of the eluent. During separation, the column oven was held at 40 °C and the mobile phase was maintained at a flow rate of 300 or 400 μl/min. After separation, the detection of substances was performed with an API 4000 tandem mass spectrometer (AB SCIEX, https://sciex.com/support/software-support/software-downloads), followed by quantification of results with the Analyst software (AB SCIEX, version 1.6.2). The composition of chromatographic conditions, as well as detailed mass spectrometric detection parameters, are listed in Table S5.
(§4) Transport-mediated net uptake was determined as fold-increase of transporter-overexpressing cells over empty vector–transfected control cells.

SLC35G3 = SLC35G3 (Homo sapiens, UniProt Q8N808); test: Uptake ratio screen, SLC35G3-overexpressing HEK293 over empty vector cells; assay type: cell-based; parameters: by amplifying the entire gene-of-interest within the HEK293 genome via a long-range PCR; settings: 2.5 μM substrate, 2 min, HEK293
Chain of SLC35G3 (Q8N808 whole entry): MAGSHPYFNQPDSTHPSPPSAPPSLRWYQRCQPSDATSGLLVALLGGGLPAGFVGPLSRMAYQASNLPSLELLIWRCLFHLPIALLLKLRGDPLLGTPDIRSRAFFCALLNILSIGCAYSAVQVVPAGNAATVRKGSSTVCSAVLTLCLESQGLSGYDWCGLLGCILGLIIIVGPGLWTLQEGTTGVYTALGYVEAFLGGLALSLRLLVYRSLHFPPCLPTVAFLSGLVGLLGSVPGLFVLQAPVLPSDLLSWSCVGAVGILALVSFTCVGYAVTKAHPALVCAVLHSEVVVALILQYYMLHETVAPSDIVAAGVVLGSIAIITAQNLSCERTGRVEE

SLC35F3 = SLC35F3 (Homo sapiens, UniProt Q8IY50); settings: 2.5 μM, 2 min, HEK293
Chain of SLC35F3 (Q8IY50 whole entry): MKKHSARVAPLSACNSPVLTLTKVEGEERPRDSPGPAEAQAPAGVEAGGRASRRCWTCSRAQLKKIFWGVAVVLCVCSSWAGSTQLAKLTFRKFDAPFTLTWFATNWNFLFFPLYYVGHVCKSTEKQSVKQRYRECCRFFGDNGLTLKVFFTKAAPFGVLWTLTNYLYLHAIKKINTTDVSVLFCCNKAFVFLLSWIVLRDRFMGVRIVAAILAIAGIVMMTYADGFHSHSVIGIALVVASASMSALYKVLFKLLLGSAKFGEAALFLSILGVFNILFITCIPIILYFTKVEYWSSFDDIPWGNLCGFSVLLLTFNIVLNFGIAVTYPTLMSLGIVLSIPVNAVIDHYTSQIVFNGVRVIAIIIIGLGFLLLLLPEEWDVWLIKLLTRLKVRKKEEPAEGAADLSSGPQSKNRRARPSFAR
Experimental: as §1, §2, §3, §4

SLC47A1 = target: T2, SLC47A1 (Homo sapiens, UniProt Q96FL8); test: Uptake ratio screen, SLC47A1-overexpressing HEK293 over empty vector cells; assay type: cell-based; settings: 2.5 μM, 2 min
T2 sequence (Q96FL8 1-570): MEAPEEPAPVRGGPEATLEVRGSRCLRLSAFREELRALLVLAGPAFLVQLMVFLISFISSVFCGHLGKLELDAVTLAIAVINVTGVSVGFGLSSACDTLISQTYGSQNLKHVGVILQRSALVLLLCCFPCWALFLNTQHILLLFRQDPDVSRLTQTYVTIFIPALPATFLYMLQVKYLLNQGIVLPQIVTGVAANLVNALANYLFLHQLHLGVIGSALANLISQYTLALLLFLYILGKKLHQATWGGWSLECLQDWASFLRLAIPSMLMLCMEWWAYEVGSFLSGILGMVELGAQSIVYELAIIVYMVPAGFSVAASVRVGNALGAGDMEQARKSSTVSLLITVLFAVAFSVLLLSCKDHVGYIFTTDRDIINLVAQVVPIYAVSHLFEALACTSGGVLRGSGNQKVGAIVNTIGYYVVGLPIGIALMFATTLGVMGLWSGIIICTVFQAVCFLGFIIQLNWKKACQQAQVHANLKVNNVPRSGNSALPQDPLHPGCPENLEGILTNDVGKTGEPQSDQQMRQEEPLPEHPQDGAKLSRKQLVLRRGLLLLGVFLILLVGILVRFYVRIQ
Experimental: as §1, §2
(§5) The intracellular drug concentrations after transport experiments were analyzed by high-performance liquid chromatography coupled to tandem mass spectrometry analysis. The HPLC consisted of a Shimadzu Nexera HPLC System with a SIL-30AC autosampler, a LC-30AD pump, a CTO-20AC column oven, and a CBM-20A controller (Shimadzu). The reverse-phase chromatography of compounds was accomplished with a Brownlee SPP RP-Amide column with 4.6 × 100 mm inner dimensions, a particle size of 2.7 μm, and a preceding Phenomenex C-18 guard column. […] After separation, the detection of substances was performed with an API 4000 tandem mass spectrometer (AB SCIEX, https://sciex.com/support/software-support/software-downloads), followed by quantification of results with the Analyst software (AB SCIEX, version 1.6.2). […]
as §4

SLC47A2 = SLC47A2 (Homo sapiens, UniProt Q86VL8); test: Uptake ratio screen, SLC47A2-overexpressing HEK293 over empty vector cells; assay type: cell-based; settings: 2.5 μM, 2 min
Chain of SLC47A2 (Q86VL8 1-566 isoform Q86VL8-3): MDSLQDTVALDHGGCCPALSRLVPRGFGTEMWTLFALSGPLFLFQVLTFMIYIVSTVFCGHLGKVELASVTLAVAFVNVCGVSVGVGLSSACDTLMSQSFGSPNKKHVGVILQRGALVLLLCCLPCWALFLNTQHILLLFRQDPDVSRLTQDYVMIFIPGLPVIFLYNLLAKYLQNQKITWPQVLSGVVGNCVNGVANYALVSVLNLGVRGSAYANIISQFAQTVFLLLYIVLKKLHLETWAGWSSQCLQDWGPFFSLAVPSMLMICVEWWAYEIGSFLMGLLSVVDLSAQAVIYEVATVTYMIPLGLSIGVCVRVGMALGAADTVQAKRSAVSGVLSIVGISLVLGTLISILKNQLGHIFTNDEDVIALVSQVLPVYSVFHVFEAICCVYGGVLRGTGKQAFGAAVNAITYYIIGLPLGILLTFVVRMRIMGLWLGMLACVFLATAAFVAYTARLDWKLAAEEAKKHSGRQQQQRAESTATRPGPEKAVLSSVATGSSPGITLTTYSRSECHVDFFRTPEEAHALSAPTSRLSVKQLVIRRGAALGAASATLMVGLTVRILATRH
Experimental: as §1, §2, §5, §4

OCT1 = OCT1 (Homo sapiens, UniProt O15245); settings: 2.5 μM, 2 min, HEK293
Chain of OCT1 (O15245 whole entry): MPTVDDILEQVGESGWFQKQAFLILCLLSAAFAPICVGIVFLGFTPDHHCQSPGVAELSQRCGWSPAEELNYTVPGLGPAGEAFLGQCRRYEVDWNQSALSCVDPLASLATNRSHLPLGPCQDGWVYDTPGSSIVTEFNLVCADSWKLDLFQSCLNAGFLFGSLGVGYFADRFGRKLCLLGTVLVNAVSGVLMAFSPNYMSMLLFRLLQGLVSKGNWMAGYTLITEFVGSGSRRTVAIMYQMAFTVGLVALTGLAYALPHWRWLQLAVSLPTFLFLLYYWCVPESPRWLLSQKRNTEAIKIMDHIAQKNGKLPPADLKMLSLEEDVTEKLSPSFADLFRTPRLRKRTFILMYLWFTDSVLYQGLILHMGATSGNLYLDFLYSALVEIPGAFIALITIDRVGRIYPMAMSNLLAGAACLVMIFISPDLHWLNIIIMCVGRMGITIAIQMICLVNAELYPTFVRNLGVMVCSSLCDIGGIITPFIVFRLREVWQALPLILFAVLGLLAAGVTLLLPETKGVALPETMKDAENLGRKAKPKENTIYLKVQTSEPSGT
Experimental: as §1, §2, §3, §4

OCT2 = OCT2 (Homo sapiens, UniProt O15244); settings: 2.5 μM, 2 min, HEK293
Chain of OCT2 (O15244 whole entry): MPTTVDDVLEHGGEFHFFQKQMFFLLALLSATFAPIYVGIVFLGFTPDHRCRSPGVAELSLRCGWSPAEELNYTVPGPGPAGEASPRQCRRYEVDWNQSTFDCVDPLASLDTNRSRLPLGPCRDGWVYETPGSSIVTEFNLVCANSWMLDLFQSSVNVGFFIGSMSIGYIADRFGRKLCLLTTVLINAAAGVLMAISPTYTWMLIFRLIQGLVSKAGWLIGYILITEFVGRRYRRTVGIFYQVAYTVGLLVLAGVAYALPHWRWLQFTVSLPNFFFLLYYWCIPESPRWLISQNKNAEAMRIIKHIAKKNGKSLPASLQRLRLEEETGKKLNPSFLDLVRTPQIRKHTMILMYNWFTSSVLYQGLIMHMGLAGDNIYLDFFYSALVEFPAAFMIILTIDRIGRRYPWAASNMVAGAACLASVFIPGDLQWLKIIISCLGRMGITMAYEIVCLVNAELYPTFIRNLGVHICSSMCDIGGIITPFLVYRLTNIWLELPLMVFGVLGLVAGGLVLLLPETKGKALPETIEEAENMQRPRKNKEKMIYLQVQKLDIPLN
Experimental: as §1, §2, §3, §4

SLC38A10 = SLC38A10 (Homo sapiens, UniProt Q9HBR0); test: Uptake ratio screen, SLC38A10-overexpressing HEK293 over empty vector cells; assay type: cell-based; parameters: by amplifying the entire gene-of-interest within the HEK293 genome via a long-range PCR; settings: 2.5 μM, 2 min
Chain of SLC38A10 (Q9HBR0 whole entry): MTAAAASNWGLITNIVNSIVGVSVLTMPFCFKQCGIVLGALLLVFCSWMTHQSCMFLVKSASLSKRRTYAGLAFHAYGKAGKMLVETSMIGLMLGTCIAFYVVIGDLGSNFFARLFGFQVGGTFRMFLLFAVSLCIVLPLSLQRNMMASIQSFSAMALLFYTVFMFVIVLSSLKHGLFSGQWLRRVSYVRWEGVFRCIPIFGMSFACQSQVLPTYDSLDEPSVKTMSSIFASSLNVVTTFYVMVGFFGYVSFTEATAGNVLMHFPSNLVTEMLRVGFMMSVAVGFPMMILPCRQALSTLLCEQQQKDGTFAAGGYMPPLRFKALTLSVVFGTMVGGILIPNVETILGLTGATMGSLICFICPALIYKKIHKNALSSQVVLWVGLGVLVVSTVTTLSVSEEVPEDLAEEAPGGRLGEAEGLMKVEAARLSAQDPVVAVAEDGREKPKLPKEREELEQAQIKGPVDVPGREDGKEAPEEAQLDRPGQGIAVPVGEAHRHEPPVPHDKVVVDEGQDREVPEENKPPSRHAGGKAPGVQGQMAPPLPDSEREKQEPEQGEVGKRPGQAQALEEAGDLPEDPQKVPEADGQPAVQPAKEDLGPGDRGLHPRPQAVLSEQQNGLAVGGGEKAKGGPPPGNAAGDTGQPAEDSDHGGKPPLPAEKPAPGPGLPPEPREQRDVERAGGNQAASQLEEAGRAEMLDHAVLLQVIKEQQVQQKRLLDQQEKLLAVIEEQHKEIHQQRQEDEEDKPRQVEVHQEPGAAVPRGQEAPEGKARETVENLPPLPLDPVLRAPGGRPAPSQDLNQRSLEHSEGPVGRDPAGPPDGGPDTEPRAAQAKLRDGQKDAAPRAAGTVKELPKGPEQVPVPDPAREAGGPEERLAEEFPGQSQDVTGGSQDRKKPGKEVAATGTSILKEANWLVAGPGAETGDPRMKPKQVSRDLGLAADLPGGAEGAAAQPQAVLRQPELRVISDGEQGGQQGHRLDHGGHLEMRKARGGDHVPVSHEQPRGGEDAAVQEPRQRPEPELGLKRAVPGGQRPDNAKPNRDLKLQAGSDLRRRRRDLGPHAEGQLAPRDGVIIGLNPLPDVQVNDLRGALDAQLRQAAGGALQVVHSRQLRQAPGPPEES
Experimental: as §1
In preparation for transport experiments, 24-well plates were pre-coated with poly-D-lysine (Sigma-Aldrich) and 300,000 cells were plated per well and incubated for 48 h. Firstly, the 24-well plate was placed on a heating plate at 37 °C, and the cells were washed with 37 °C HBSS^+ buffer (Hank’s balanced salt solution supplemented with 10 mM Hepes and adjusted to pH 7.4; Thermo Fisher Scientific). The substance-of-interest, which was diluted in 37 °C HBSS^+ to a desired concentration, was added to the cells for exactly 2 min. […] For variations in seeded cell numbers between the cell lines, several wells were lysed in RIPA buffer and used for total protein quantification using a bicinchoninic assay ([74]) and bovine serum albumin as calibration.
The intracellular drug concentrations after transport experiments were analyzed by high-performance liquid chromatography coupled to tandem mass spectrometry analysis. […] After separation, the detection of substances was performed with an API 4000 tandem mass spectrometer (AB SCIEX, https://sciex.com/support/software-support/software-downloads), followed by quantification of results with the Analyst software (AB SCIEX, version 1.6.2). […]

SLC35E4 = target: T3, SLC35E4 (Homo sapiens, UniProt Q6ICL7); test: Uptake ratio screen, SLC35E4-overexpressing HEK293 over empty vector cells; assay type: cell-based; parameters: by amplifying the entire gene-of-interest within the HEK293 genome via a long-range PCR; settings: 2.5 μM, 2 min
T3 sequence (Q6ICL7 1-350): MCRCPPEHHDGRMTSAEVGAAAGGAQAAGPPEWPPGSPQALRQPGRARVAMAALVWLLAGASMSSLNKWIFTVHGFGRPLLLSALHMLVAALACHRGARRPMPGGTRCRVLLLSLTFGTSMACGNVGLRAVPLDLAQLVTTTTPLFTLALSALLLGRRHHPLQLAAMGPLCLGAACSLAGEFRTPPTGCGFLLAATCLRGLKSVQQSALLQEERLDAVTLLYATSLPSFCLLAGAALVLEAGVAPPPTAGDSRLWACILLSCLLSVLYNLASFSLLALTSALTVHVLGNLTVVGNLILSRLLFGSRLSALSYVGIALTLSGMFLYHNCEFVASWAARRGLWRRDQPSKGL
Experimental: as §1, §2, §5, §4

Uptake by SLC35F4 (in words) (SLC35F4): no enhanced thiamine transport
Uptake data for SLC35G3, mean value (fold-increase over empty vector control) (SLC35G3): 0.90
Uptake by SLC35F3 (in words) (SLC35F3): no enhanced thiamine uptake
SMILES: Cc1ncc(C[n+]2csc(CCO)c2C)c(N)n1 [Thiamine]

Uptake by SLC47A1 (MATE1) (in words) (SLC47A1): only transported by the MATEs
Uptake by SLC47A2 (MATE2K) (in words) (SLC47A2): only transported by the MATEs
Uptake by OCT1 (in words) (OCT1): to some extent
Uptake by OCT2 (in words) (OCT2): to some extent
SMILES: Nc1nc(=O)n([C@@H]2CS[C@H](CO)O2)cc1F [emtricitabine]

SMILES: N[C@@H](CCC(=O)O)C(=O)O [glutamic acid]
Uptake by SLC38A10 compared with empty-vector-transfected cells (factor) (SLC38A10): 1.4
Uptake by SLC35E4 (in words) (SLC35E4): minor
